Among the test systems are HL-60; UO-31; SNB-78; TK-10; NCI-H522; M14; NCI-H226; HOP-62; SNB-19; HCC 2998; RXF 393; HCT-15; SN12C; NCI-H23; SF-539; HOP-92.
Holding throughout (assay): NCI tumour cell line growth inhibition, 48 h

These results are taken from ChEMBL document CHEMBL1201862, “PubChem BioAssay data set” (2004).

Structures are written as SMILES.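 Values below derive from 48-hour exposures of cells grown in 96-well plates, with endpoints linearly interpolated between the two concentrations bracketing the appropriate inhibition level. GI50: concentration for 50% inhibition of growth.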 Calls of active or inactive are those of the source. No stated cut-off is given here; in the data, active = GI50 up to about 1.1 µM and inactive = higher.

On to `Cc1noc(C)c1CCCOC1COc2ccccc2OCCOCCOc2ccccc2OC1`, for which the GI50 in the assay on HL-60, in the assay on UO-31, in the assay on SNB-78, with TK-10, with NCI-H522 and in the assay on M14 was > 100 µM (inactive) throughout. In addition, the GI50 was > 100 µM (inactive) with NCI-H226; > 100 µM (inactive) with HOP-62; > 100 µM (inactive) in the assay on SNB-19; > 100 µM (inactive) in the assay on HCC 2998; > 100 µM (inactive) in the assay with RXF 393; over 100 µM with HCT-15. Besides, the GI50 in the assay with SN12C, with NCI-H23 and in the assay with SF-539 was > 100 µM (inactive) in each case.
On to `O=C(Nc1ccc(Cl)cc1C(=O)O)c1ccc([N+](=O)[O-])cc1`, for which the GI50 was 22.4 µM (inactive) with HL-60; 19 µM (inactive) with UO-31; 22.4 µM (inactive) in the assay on SNB-78; 31.4 µM (inactive) in the assay on TK-10; 24.3 µM (inactive) with M14; 11.2 µM (inactive) with NCI-H226. For the same compound, the GI50 in the assay with HOP-62 was 10.2 µM (inactive); with SNB-19, 14.5 µM (inactive); in the assay with HCC 2998, 11.2 µM (inactive); in the assay on HCT-15 it was 16.7 µM; in the assay on SN12C it was 37.2 µM (inactive); in the assay with HOP-92, 8.18 µM (inactive). In the assay on SF-539, the GI50 was 14.5 µM (inactive).
Regarding `O=C(NCCCN1CCN(CCCNC(=O)c2cccc3ccccc23)CC1)c1cccc2ccccc12`, the GI50 in the assay with HL-60 is 79.6 µM (inactive); in the assay with UO-31, 32.3 µM (inactive); in the assay with SNB-78, 41.3 µM (inactive); with TK-10, 65.3 µM (inactive); in the assay on M14, > 100 µM (inactive); with NCI-H226, > 100 µM (inactive). The GI50 with HOP-62 is 30.8 µM (inactive); in the assay with SNB-19, 76.7 µM (inactive); in the assay with HCC 2998, 35.1 µM (inactive); in the assay with HCT-15, over 100 µM; with SN12C, > 100 µM (inactive); with HOP-92 it was 0.107 µM (active). For the same compound, the GI50 in the assay with NCI-H23 was 57.8 µM (inactive); in the assay on SF-539, 54.7 µM (inactive).
As for `Nc1c(-c2nc3ccccc3s2)[n+]([O-])c2ccccc2[n+]1[O-]`, the GI50 with HL-60 is 29.9 µM (inactive); in the assay on UO-31, 21.8 µM (inactive); with SNB-78 it was 63 µM (inactive); in the assay with TK-10, 42.1 µM (inactive); with NCI-H522 it was 22 µM (inactive); in the assay on M14, 29.6 µM (inactive). Besides, the GI50 was 54.7 µM (inactive) in the assay on NCI-H226; 22.5 µM (inactive) in the assay on HOP-62; 29.3 µM (inactive) in the assay on SNB-19; 38.1 µM (inactive) in the assay with HCC 2998; 23.1 µM (inactive) with HOP-92; 20 µM (inactive) with NCI-H23. Moreover, the GI50 with SF-539 is 29.9 µM (inactive).
With `CCC1CCc2c(OC)ccc(OCC(=O)O)c2C1=O` (stereo not given), the GI50 in the assay with HL-60, with UO-31, with SNB-78, with TK-10, with NCI-H522 and in the assay on M14 was > 100 µM (inactive) each time. In addition, the GI50 in the assay with NCI-H226 was > 100 µM (inactive); in the assay on HOP-62, > 100 µM (inactive); in the assay with SNB-19 it was > 100 µM (inactive); in the assay with HCC 2998, > 100 µM (inactive); with RXF 393, > 100 µM (inactive); in the assay on HCT-15 it was over 100 µM. Moreover, the GI50 in the assay on SN12C, in the assay with NCI-H23 and in the assay on SF-539 was > 100 µM (inactive) each time.
Regarding `CCOC(=N)CC(=O)Nc1ccc(Cl)cc1`, the GI50 with HL-60, in the assay with UO-31, with SNB-78, in the assay with TK-10, in the assay with NCI-H522 and in the assay on M14 was > 100 µM (inactive) in each case. The GI50 in the assay with NCI-H226 is > 100 µM (inactive); in the assay with HOP-62 it was > 100 µM (inactive); in the assay on SNB-19, > 100 µM (inactive); with HCC 2998 it was > 100 µM (inactive); in the assay with RXF 393 it was > 100 µM (inactive); in the assay with HCT-15 it was over 100 µM. The GI50 with SN12C, in the assay with NCI-H23 and with SF-539 was > 100 µM (inactive) throughout.
Consider `CCc1ccc(/N=C\c2cc(OC)c(OC)c(OC)c2)cc1`, for which the GI50 with UO-31, in the assay on SNB-78, in the assay on TK-10, with NCI-H522, with M14 and in the assay with HOP-62 was > 100 µM (inactive) throughout. The GI50 in the assay with SNB-19 was > 100 µM (inactive); in the assay with RXF 393, > 100 µM (inactive); with HCT-15 it was over 100 µM; in the assay with SN12C, > 100 µM (inactive); in the assay on HOP-92, > 100 µM (inactive); with NCI-H23, > 100 µM (inactive). Besides, the GI50 in the assay with SF-539 is > 100 µM (inactive).
Turning to `CC(=O)OC1[C@H]2c3cc4c(cc3CN3CCC(=C[C@@H]1O)C23)OCO4` (stereo not given in full), the GI50 is > 100 µM (inactive) in the assay with HL-60; > 100 µM (inactive) with UO-31; 54.2 µM (inactive) in the assay on SNB-78; > 100 µM (inactive) in the assay with TK-10; > 100 µM (inactive) in the assay on NCI-H522; 44.5 µM (inactive) in the assay with M14. The GI50 is 34.7 µM (inactive) in the assay with NCI-H226; > 100 µM (inactive) with HOP-62; 56.8 µM (inactive) in the assay on SNB-19; 34.8 µM (inactive) in the assay on HCC 2998; > 100 µM (inactive) with RXF 393; over 100 µM in the assay with HCT-15. Besides, the GI50 in the assay on SN12C, with NCI-H23 and in the assay on SF-539 was > 100 µM (inactive) throughout.
On to `CC(C)c1ccc(/C=C(\NC(=O)c2ccccc2)c2nc3ccccc3[nH]2)cc1`, for which the GI50 in the assay with UO-31 is 38.7 µM (inactive); with SNB-78, 42.9 µM (inactive); with TK-10, 54.5 µM (inactive); in the assay with NCI-H522, 26.7 µM (inactive); in the assay with M14, 32.3 µM (inactive); with NCI-H226, 55.8 µM (inactive). For the same compound, the GI50 with SNB-19 is 47.8 µM (inactive); with RXF 393, 36.5 µM (inactive); with HCT-15 it was 43.1 µM; in the assay on SN12C, 55 µM (inactive); with HOP-92, 36.7 µM (inactive); in the assay with NCI-H23, 26.8 µM (inactive). In addition, the GI50 in the assay with SF-539 is 77.1 µM (inactive).
In the case of `O=C1CC23CC(=O)CC2(C1)c1ccccc1C3=O` (stereo not given), the GI50 in the assay with HL-60, in the assay on UO-31, in the assay with SNB-78, in the assay on TK-10, in the assay with NCI-H522 and in the assay with M14 was > 100 µM (inactive) in each case. The GI50 in the assay on NCI-H226 was > 100 µM (inactive); in the assay on HOP-62, > 100 µM (inactive); in the assay on SNB-19 it was > 100 µM (inactive); in the assay on HCC 2998, > 100 µM (inactive); with RXF 393, 40.6 µM (inactive); with SN12C, > 100 µM (inactive). The GI50 with NCI-H23 and in the assay on SF-539 was > 100 µM (inactive) in each case.
